Source: patent US8697840B2, “Peptide inhibition of lung epithelial apoptosis and pulmonary fibrosis” (Board of Regents, The University of Texas System, priority 2008, dated 2014)

Columns and labels:
[1] = tested on: bleomycin-induced lung epithelial cell (LEC) apoptosis; assay: TUNEL staining for apoptosis of lung sections of bleo-treated mice; assay type: in vivo, mouse; details: for Lung epithelial cell apoptosis: appearance of cells / Lung epithelial cell apoptosis: cell death: bleo-treated animals, peptide one day after bleo; for Lung epithelial cell apoptosis: appearance of cells: lung tissue day 21; for Lung epithelial cell apoptosis: cell death: lung tissue day 21, TUNEL
Procedure: The mice were sacrificed 24, 48 and 72 h later. Lungs were excised, inflated and fixed in formalin, and […] sections were analyzed by TUNEL staining. […]

[2] = tested on: bleo-induced lung injury in the mouse; assay: Lung hydroxyproline (collagen deposition) after bleo-induced lung injury; assay type: in vivo; details: for bleomycin-induced collagen deposition (hPro content, % of control): 10 mM peptide i.p. osmotic pump 7 days after bleo
Procedure: (§1) FIGS. 10A and 10B are graphs showing the effect of PP-1 on fibrosis following bleo-induced lung injury in the mouse. […] 24 h after bleo, 0.1 ml osmotic pump filled with 10 mM PP-1 (designated “Bleo+PP” in Figures) or CP1 control scrambled peptide (“Bleo+CP1”) were implanted intraperitoneally. Lungs were harvested after 21 days, homogenized and the homogenates were subjected to the analysis of hydroxyproline or desmosine levels.
Anesthetized mice received intranasal bleomycin HCl solution containing 40 μg/50μl in sterile saline solution. After 24 h, 7 days or 14 days 10 mM PP-1 (“Bleo+PP-1”) or control peptide (Bleo+CP-1) were given ip using a 0.1 ml osmotic pump. Mice were sacrificed and lungs excised 21 days later. Lung homogenates were analyzed for hydroxyproline. Results are expressed a % of control hydroxyproline concentration.
Anesthetized mice received intranasal bleomycin HCl solution containing 40 μg/50 μl in sterile saline solution. After day 7, 10 mM peptide PP-2 (“Bleo+PP-2”) or control peptide (“Bleo+CP-2) were given intraperitoneally using a 0.1 ml osmotic pump. Lungs were excised after 21 days, lungs were homogenized and the homogenates were analyzed for hydroxyproline. Results are expressed a % of control hydroxyproline concentration.
The hPro content of the whole mouse lungs tissues were measured using the technique of Woessner J F, 1961, Arch. Biochem. Biophys. 93:440-7). Lung tissue from each animal was homogenized in 1.0 ml of extraction buffer. One ml 12N HCl was added, and the samples were hydrolyzed at 110° C. for 24 h. After cooling, 5 μl of the samples were mixed with 5 μl of citrate-acetate buffer (5% citric acid, 1.2% glacial acetic acid, 7.25% sodium acetate and 3.4% sodium hydroxide) and 100 μl of chloramine-T solution (1.4% chloramine-T, 10% N-propanol, and 80% citrate acetate buffer) in 96 well plates. The mixture was incubated for 20 min at room temperature. A total of 100 μl of Ehrlich's solution (2.5 g p-dimethylaminobenzaldehyde added to 9.3 ml of n-propanol and 3.9 ml of 70% perchloric acid) was added to each well and the plates incubated at 65° C. for 18 min. The absorbance of each sample was measured at 550 nm. Standard curves were generated for each experiment using a known concentration of reagent hPro. Results were expressed as % changes in hPro content (with total hPro content of saline-treated control mouse lungs considered 100%).
(§2) Lungs were harvested after 21 days, homogenized and the homogenates were subjected to the analysis of hydroxyproline as above (FIG. 10A) or desmosine (FIG. 10B). The effect of PP-1 on fibrosis in bleo-induced mouse lung injury was evaluated. Mice were treated with saline or 50 μg Bleo intranasally were implanted one day later with, 0.1 ml osmotic pumps i.p. The pumps were filled with either 10 mM (2.92 mg/100 μl) PP-1 (“Bleo+PP-1”) or control scrambled peptide CP-1 (“Bleo+CP-1”).

[3] = tested on: bleo-induced collagen deposition in mouse lung; assay: Mason's Trichrome stain for collagen of lung sections of bleo-treated mice; assay type: in vivo; details: for Collagen content in lung section: bleo-treated animals, peptide one day after bleo, day 21, trichrome stain
Procedure: FIG. 13 is a set of photomicrographs showing that PP-1 prevents bleo-induced collagen deposition in mouse lung. Mice were treated with bleo (50 μg/ml) by intranasal instillation followed by treatment with PP-1 (10 nM) or control peptide CP-1 on day 2. Lungs were excised on day 21, inflated and fixed in formalin, a sectioned into […] sections which were subjected to Mason's Trichrome stain (a three-color stain that stains cell nuclei red, collagen green or blue, and cytoplasm red). Blue staining indicates collagen deposition in bleo-treated lung sections.
(§3) FIGS. 14A & 14B is a series of photomicrographs of lung epithelial tissue stained with Mason's trichrome stain for collagen (FIG. 10A) and by TUNEL staining for apoptosis (FIG. 10B). Bleo-treated animals were instilled with either PP-1, PP-2 or control peptide CP-1 one day after bleo treatment, The lungs were removed on day 21, subjected to the staining procedures and examined for collagen accumulation or apoptosis.
Collagen deposition in mouse lung after bleo treatment was investigated. Mice were treated with bleo (50 μg/ml) by intranasal instillation followed by treatment with PP-1 (10 nM) (designated as PP in Figure) or control peptide CP-1 (designated CP in FIG. 13) on day 2. Lungs were excised on day 21, inflated and fixed in formalin, a sectioned into […] sections which were subjected to Mason's Trichrome stain (a three-color stain that stains cell nuclei red, collagen green or blue, and cytoplasm red).
(§4) A comparison was made of normal and bleo-treated lung, and the effect of PP-1 and PP-2 on the bleo-treated lungs were examined. Animals were treated with bleo and peptides as above. Lung tissue was removed at day 21 and stained with Mason's trichrome stain for collagen and subjected to TUNEL staining for apoptosis.

bleo-treated lung = assay: Histology of lung tissue of bleo-treated animals, pathological observations; assay type: in vivo, mouse; details: conclusion from Table 3, day 21
Source text: as §3, §4

[4] = tested on: uPAR-dependent adhesion of cells to vitronectin; details: Wei Y et al., 1996, Science 273; cited from earlier work
[5] = target: integrin-caveolin-uPAR complexes (Homo sapiens, UniProt Q03405); details: at a concentration that blocked adhesion; Wei Y et al., 1996; cited from earlier work
cleaved PARP = assay: IHC of lung sections of bleo-treated mice: cleaved PARP; assay type: in vivo, mouse; details: peptide 4.5 μM i.p. days 1 and 2, bleomycin 40 μg/50 μl intranasal day 2; up to 72 h
Procedure: On day 2 mice were treated with bleomycin (40 μg/50μl) by intranasal instillation. Mice were sacrificed 24, 48 and 72 h after later, lungs were excised, inflated and fixed in formalin, and […] sections were analyzed by immunohistochemistry (IHC) using an antibody specific for cleaved PARP.
(§5) For immunohistochemical (IHC) analysis, lungs were inflated at constant pressure of 20 cm H2O, removed and fixed overnight in 2% paraformaldehyde in PBS. Tissue was dehydrated by passage through a standard alcohol series and was embedded in paraffin. 5 μm sections were deparaffinized with xylene followed by incubation with 100% and 95% alcohol. After 10 min of antigen retrieval, the slides were incubated with H2O2 for 30 min to quench endogenous peroxidase. Slides were incubated overnight with the respective antibodies in PBS containing 0.1% Tween 20 and further processed using Lab vision kit (Freemont Calif.).

p53 = assay: IHC of lung tissue of bleo-treated mice: p53; assay type: in vivo, mouse; details: bleomycin-treated mice, 24-72 h
Procedure: as §5
(§6) An IHC study was conducted to analyze lung tissue for expression p53, uPA, uPAR, PAI-1 and cleaved caspase 3 (Table 2). […] These IHC observations were confirmed by Western blotting (see Example II and FIG. 5).

PAI-1 = assay: IHC of lung tissue of bleo-treated mice: PAI-1; assay type: in vivo, mouse; details: bleomycin-treated mice, 24-72 h
Procedure: as §5, §6

[6] = tested on: bleo-induced lung injury in the mouse; assay: Lung desmosine (elastin) after bleo-induced lung injury; assay type: in vivo; details: 50 μg Bleo intranasally; 10 mM peptide in 0.1 ml osmotic pump i.p. one day later; lungs after 21 days
Procedure: as §1, §2

[7] = bleomycin 40 μg/50 μl intranasal, lungs after 21 days

Sequence of integrin-caveolin-uPAR complexes (Q03405 23-305, one chain of several): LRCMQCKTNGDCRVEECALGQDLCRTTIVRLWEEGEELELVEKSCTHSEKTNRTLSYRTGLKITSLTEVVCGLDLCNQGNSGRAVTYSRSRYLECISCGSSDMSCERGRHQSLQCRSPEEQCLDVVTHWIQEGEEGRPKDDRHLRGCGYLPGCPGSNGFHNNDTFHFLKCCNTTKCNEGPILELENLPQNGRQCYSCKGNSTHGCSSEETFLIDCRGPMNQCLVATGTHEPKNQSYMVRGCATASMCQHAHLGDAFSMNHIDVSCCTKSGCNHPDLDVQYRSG

Sequence	Lung epithelial cell apoptosis: appearance of cells [1]	Lung epithelial cell apoptosis: cell death [1]	bleomycin-induced collagen deposition (hPro content, % of control) [2, 7]	Collagen content in lung section [3]	effect on bleo-induced lung injury / Bleo-damaged lung tissue (bleo-treated lung)	uPAR-dependent adhesion of cells to vitronectin [4]	disruption of integrin-caveolin-uPAR complexes [5]	development of bleo-induced lung fibrosis ([3]; conclusion from Table 3, day 21)	apoptosis (TUNEL positive cells) ([1]; peptide 4.5 μM i.p. on day 1 and 2, bleomycin 40 μg/50 μl intranasal on day 2, 24, 48 and 72 h)	cleavage (degradation) of PARP in lung (cleaved PARP)	p53 expression in lung tissue (IHC) (p53)	PAI-1 expression in lung tissue (IHC) (PAI-1)	lung hydroxyproline levels ([2]; 50 μg Bleo intranasally, 10 mM peptide in 0.1 ml osmotic pump i.p. one day later, lungs after 21 days)	bleomycin-induced collagen deposition (hydroxyproline, % of control) ([2]; bleomycin 40 μg/50 μl intranasal, 10 mM peptide i.p. osmotic pump after 24 h, 7 days or 14 days, lungs 21 days)	lung desmosine levels [6]
AESTYHHLSLGYMYTLN [CP-2]	Fibrotic cells,	90% cell	but not its control peptide CP-2 reversed bleomycin induced increases in collagen deposition	Increased	did not have any discernible effect on Bleo-damaged lung tissue	inhibited uPAR-dependent adhesion of cells to vitronectin	disrupted integrin-caveolin-uPAR complexes	–	–	–	–	–	–	–	–
NYHYLESSMTALYTLGH [PP-2, initially disclosed as scrambled control for Peptide 25 of Wei Y et al]	No fibrosis,	11% cell	significantly suppressed collagen deposition	Minimal	protected LECs from bleo-induced lung injury	but not its control (which is PP-2 here) inhibited uPAR-dependent adhesion of cells to vitronectin	but not its control, disrupted integrin-caveolin-uPAR complexes	prevented the development of bleo-induced lung fibrosis	–	–	–	–	–	–	–
WGIDKAFFTTSTVTYKWFRY [CP-1, scrambled control peptide for PP-1 with the same amino acid composition]	Fibrotic cells,	90% cell	–	Increased	did not have any discernible effect on Bleo-damaged lung tissue	–	–	–	but not with control peptide, reversed bleomycin-induced apoptosis	but not control peptide CP-1 reversed such PARP degradation	but not control peptide CP-1, blocked bleomycin induced p53 expression	but not control peptide (CP-1) reduced this PAI-1 expression	did not have this effect	but not control peptide CP-1 reversed bleomycin-induced increases in collagen deposition	did not have this effect
